Several values for one entry are separate records, joined by “and”; a condition that tells them apart may be missing. Equal entries are not always repeated. Where two headings read alike, the source gives them in different places.
Experiments:
[1] = test system: sE-selectin; test: Plasma soluble E-selectin ELISA during treatment; type: in vivo, human; settings: individual subjects; for sE-selectin AUEC Day 3 / sE-selectin AUEC Day 8 / sE-selectin AUEC Percent Change from Day 1, Day 3 / sE-selectin AUEC Percent Change from Day 1, Day 8: with MEC
Experimental: Plasma sE-selectin was quantified using a commercially available sandwich format ELISA assay, in which a monoclonal antibody specific for sE-selectin has been pre-coated onto a microplate (Human sE-Selectin Platinum ELISA kit, eBioscience, cat. no. BMS205). Standards, samples and controls were pipetted into the wells of the microplate where they bind to the antibodies coated on the microplate. After a wash step, an HRP-conjugated anti-human sE-selectin antibody was added to the wells to bind the sE-selectin captured by the first antibody. After washing the plate wells to remove unbound HRP-conjugated anti-human sE-selectin antibody, a substrate solution reactive with HRP is added to the wells. Colored product formed in proportion to the amount of human sE-selectin present in the sample or standard. The color-producing reaction was stopped by addition of acid and absorbance of each well was measured at 450 nm. Six human serum samples from healthy donors served as the quality control samples. In addition, two control lyophilized plasma samples (high and low) included with the assay kit were also added to each run.
This response was seen both in mean levels and Area-Under-Effect-Curve (“AUEC”). Decrease from baseline to Day 8 (at the end of 6 days of treatment with a compound of Formula (I), given concurrently with MEC chemotherapy) was highly significant (P<0.0001) with no dose response. FIG. 11 illustrates decreasing mean levels of plasma soluble E-selectin over the treatment period in all dose groups, where doses were BID (i.e., the 5, 10, and 20 mg/kg “Per Dose” amounts of a compound of Formula (I) correspond to dosages of 10, 20, and 40 mg/kg per day, respectively).

[2] = target: T1, E-selectin (Mus musculus, UniProt Q00690); test: E-selectin competitive binding assay (sLe^a polyacrylamide conjugate)
T1 construct: fused on or other part: Ig (immunoglobulin Fc) part fused on as a handle for immobilisation
T1 sequence (Q00690 22-175 limits assumed): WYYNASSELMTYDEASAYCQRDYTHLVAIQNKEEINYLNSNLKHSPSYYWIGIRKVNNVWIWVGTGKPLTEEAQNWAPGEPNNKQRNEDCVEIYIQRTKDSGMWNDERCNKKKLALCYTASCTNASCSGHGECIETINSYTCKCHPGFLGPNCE
Experimental: (§1) The inhibition assay to screen for and characterize glycomimetic antagonists of E-selectin is a competitive binding assay, which allows the determination of IC50 and IC90 values. An E-selectin/Ig chimera was immobilized in 96 well microtiter plates by incubation at 37° C. for 2 hours. To reduce nonspecific binding, bovine serum albumin was added to each well and incubated at room temperature for 2 hours. The plate was washed and serial dilutions of the test compounds were added to the wells in the presence of conjugates of biotinylated, sLe^a polyacrylamide with streptavidin/horseradish peroxidase and incubated for 2 hours at room temperature.
(§2) To determine the amount of sLe^a bound to immobilized E-selectin after washing, the peroxidase substrate, 3, 3′, 5, 5′ tetramethylbenzidine (TMB) was added. After 3 minutes, the enzyme reaction was stopped by the addition of H3PO4, and the absorbance of light at a wavelength of 450 nm was determined. The concentration of a compound of Formula (I), required to inhibit binding by 50% was determined and reported as the IC50. The concentration required to inhibit binding by 90% was determined and reported as the IC90.

[3] = target: T2, E-selectin (Homo sapiens, UniProt P16581); test: as above
T2 construct: fused on or other part: Ig (immunoglobulin Fc) part fused on as a handle for immobilisation
T2 sequence (P16581 22-175 limits assumed): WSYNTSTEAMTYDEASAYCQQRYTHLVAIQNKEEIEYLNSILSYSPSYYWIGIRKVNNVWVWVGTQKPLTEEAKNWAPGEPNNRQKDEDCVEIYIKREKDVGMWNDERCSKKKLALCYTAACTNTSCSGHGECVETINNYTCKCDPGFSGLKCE
Experimental: as §1, §2

[4] = 5-FU induced mucositis assay; type: in vivo, Mice (C57bl/6); settings: 20 mg/kg IP BID 4 days after second 5-FU injection
Experimental: Mice (C57bl/6) were treated with 150 mg/kg of 5-fluorouracil (5-FU) intraperitoneal (IP) on days 0 and 10. After the second injection of 5-FU, the mice were treated with a compound of Formula (I) (20 mg/kg in saline, IP, BID (i.e. 40 mg/kg per day)) or saline alone (0.15 M NaCl) for 4 days. Mice were then sacrificed and the small intestines were removed and weighed to determine the degree of inflammation. […] FIG. 1B illustrates that intestinal erosion, villous loss, and macrophage infiltration after administration of chemotherapy were ameliorated by concurrent administration of a compound of Formula (I).

[5] = test system: MLL-AF9-induced AML leukemia; test: Syngeneic MLL-AF9 induced AML leukemia survival model; type: in vivo, mice; settings: 40 mg/kg BID 10 days with cytarabine/DOX
Experimental: The impact of a compound of Formula (I) when administered adjunctively with cytarabine/DOX chemotherapy was evaluated in the syngeneic MLL-AF9 induced AML leukemia model.
Bone marrow from mice bearing MLL-AF9-inducted leukemia was harvested and enriched for kit+ cells and frozen in aliquots for subsequent transplant. Recipient mice were then injected with 3×10^4 leukemic cells 2 days after conditioning (Study day 0). Six days after leukemic injection, mice were randomized into 3 groups (n=8/group): a group administered a compound of Formula (I) at 40 mg/kg BID (i.e. 80 mg/kg per day) for 10 days, a group administered cytarabine/DOX (cytarabine at 100 mg/kg QD for 5 days, DOX at 1 mg/kg QD for 2 days), and a group administered a combined regimen of cytarabine/DOX/compound of Formula (I).

CC[C@@H]1CC(C(=O)NCCNC(=O)CCOCCOCCOCCOCCOCCOCCOCCOCCOCCOCCOCCOC)C[C@@H](O[C@@H]2O[C@@H](CO)[C@H](O)C(O[C@@H](CC3CCCCC3)C(=O)O)C2NC(C)=O)C1OC1O[C@@H](C)C(O)[C@H](O)[C@@H]1O (stereo partly drawn) [compound of Formula (I)]
sE-selectin AUEC Day 1 ([1]; 5 mg/kg per dose): 563.47 hrxng/mL and 1,605.18 hrxng/mL and 339.27 hrxng/mL and 328.40 hrxng/mL | sE-selectin AUEC Day 3 ([1]; 5 mg/kg per dose): 494.30 hrxng/mL and 1,445.26 hrxng/mL and 275.71 hrxng/mL and 332.11 hrxng/mL | sE-selectin AUEC Day 8 ([1]; 5 mg/kg per dose): 440.68 hrxng/mL and 728.47 hrxng/mL and 156.25 hrxng/mL and 161.11 hrxng/mL | sE-selectin AUEC Percent Change from Day 1, Day 3 ([1]; 5 mg/kg per dose): −12.28% and −9.96% and −18.74% and 1.13% | sE-selectin AUEC Percent Change from Day 1, Day 8 ([1]; 5 mg/kg per dose): −21.79% and −54.62% and −53.95% and −50.94% | sE-selectin AUEC Day 1 ([1]; 10 mg/kg per dose): 338.36 hrxng/mL and 707.63 hrxng/mL and 325.19 hrxng/mL and 269.90 hrxng/mL and 230.35 hrxng/mL | sE-selectin AUEC Day 3 ([1]; 10 mg/kg per dose): 313.04 hrxng/mL and 981.09 hrxng/mL and 298.31 hrxng/mL and 202.99 hrxng/mL and 185.98 hrxng/mL | sE-selectin AUEC Day 8 ([1]; 10 mg/kg per dose): 168.71 hrxng/mL and 218.03 hrxng/mL and 25.51 hrxng/mL and 103.74 hrxng/mL and 158.91 hrxng/mL | sE-selectin AUEC Percent Change from Day 1, Day 3 ([1]; 10 mg/kg per dose): −7.48% and 38.64% and −8.26% and −24.79% and −19.26% | sE-selectin AUEC Percent Change from Day 1, Day 8 ([1]; 10 mg/kg per dose): −50.14% and −69.19% and −92.15% and −61.57% and −31.01% | sE-selectin AUEC Day 1 ([1]; 20 mg/kg per dose): 2,206.19 hrxng/mL and 750.41 hrxng/mL and 202.19 hrxng/mL | sE-selectin AUEC Day 3 ([1]; 20 mg/kg per dose): 1,743.61 hrxng/mL and 632.82 hrxng/mL and 163.18 hrxng/mL | sE-selectin AUEC Day 8 ([1]; 20 mg/kg per dose): 956.57 hrxng/mL and 294.47 hrxng/mL and 31.49 hrxng/mL | sE-selectin AUEC Percent Change from Day 1, Day 3 ([1]; 20 mg/kg per dose): −20.97% and −15.67% and −19.30% | sE-selectin AUEC Percent Change from Day 1, Day 8 ([1]; 20 mg/kg per dose): −56.64% and −60.76% and −84.43% | IC50 [2]: 2.45 µM and 2.49 µM | IC90 [2]: 3.7 µM and 4.91 µg/mL | IC50 [3]: 2.44 µM and 2.4 µM | IC90 [3]: 7535 ng/mL | IC90 ([3]; read-out: IC90): 7.54 µg/mL and 5.68 µM | gastrointestinal mucositis as measured by intestinal weight [4]: protects against chemotherapy induced gastrointestinal mucositis | intestinal erosion, villous loss, and macrophage infiltration [4]: ameliorated | MST [5]: 41 days | increased lifespan [5]: 64%
